The source of these data is article PMC7669869, “AdipoR1/AdipoR2 dual agonist recovers nonalcoholic steatohepatitis and related fibrosis via endoplasmic reticulum-mitochondria axis” (Nature Communications, 2020).

Series [1] relates to HepG2 cells. The series can be described thus: PA induced lipid accumulation, Oil Red O staining. Format: cell-based, human. To be noted: HepG2, 0.25 mM PA + 200 μM peptide, 24 h; in words. On the procedure:
Hepatoma carcinoma cell line HepG2 and human hepatic activated stellate cell line LX2 used in this study were purchased from Type Culture Collection of the Chinese Academy of Sciences (Shanghai, China). Cells were cultured in Dulbecco’s modified Eagle’s medium (DMEM) with 10% fetal bovine serum (FBS), supplemented with 1% penicillin–streptomycin (ThermoFisher Scientific, USA) at 37 °C in a humidified atmosphere of 5% CO2. In PA (Sigma, USA) induced lipid accumulation cell model, HepG2 cells were seeded into a 6-well plate at 5E5 cells per well. 0.25 mM PA and/or 200 μM candidate peptides were co-incubated with cells for 24 h. Then Oil Red O staining was performed to evaluate the accumulation of lipid droplets. BSA (Sigma, USA) was used in this experiment as the negative control. For LX2 cells, 2E5 cells were seeded, then the adherent cells were exposed to 200 μM candidate peptides for another 48 h. Next, the cell protein was obtained and western blotting was performed. Candidate peptides were diluted in DMEM in a stock concentration of 1 M.

Series [2] has as its system CCl4 induced liver fibrosis mice. The series can be described thus: CCl4 induced liver fibrosis mice: liver appearance, body weight, HE, Sirius red, IHC (αSMA, COL1α1, CD68). Format: in vivo, mouse. To be noted: CCl4 induced liver fibrosis mice; administration dosages of 0.5 mg kg−1 and 2 mg kg−1; in words. On the procedure:
Male mice liver fibrosis was induced by intraperitoneal injection of 20% CCl4 (Sigma, USA) diluted in corn oil (Aladdin, China) every 3 days for 6 weeks (n = 6; 5 ml kg^−1 body weight). Mice injected with equivalent volume of corn oil serves as control group (n = 6). Liver fibrosis mice treated with JT003 for 3 weeks were used to evaluated the pharmacological effects (n = 6; 500 μg kg^−1; daily intraperitoneal injection).
The levels of TG and HYP in liver tissue were detected with certain commercial assay kit (Nanjing Jiancheng Bioengineering Institute, China). Formalin-fixed liver tissues were embedded in paraffin, sectioned into 5 μm slices. After deparaffinization and rehydration of the section slices, they were stained with Haematoxylin and Eosin or Periodic Acid-Schiff. For the detection of liver collagen content, Sirius Red staining for collagen was performed. OCT-embedded frozen liver tissues were sectioned into 12 μm slices, and Oil Red O staining was performed. The cryostat-cut slices were stained with freshly prepared Oil Red O working solution for 7 min Two independent experimenters who were blinded to the treatment evaluated the staining slides and analyzed the score for steatosis, glucogen accumulation and collagen proliferation area.
Paraffin-embedded liver slices were deparaffinized and rehydrated, antigen retrieval was performed under the high pressure and temperature in 0.01 M sodium citrate buffer (pH = 6.0). To quench the endogenous peroxidase activity, the slices were then incubated with 1% hydrogen peroxide in methanol for 10 min in room temperature. Then slices were incubated with corresponding primary antibodies. After washing, HRP-conjugated secondary antibodies specific to the species of the primary antibodies were used. After the section were developed with DAB, hematoxylin staining was performed for cell counting.

Series [3] is described as follows: Pharmacokinetic assay in SD rats. It counts as in vivo, rat. On the procedure: Male SpragueDawley (SD) rats were randomly divided into two groups (n = 3 per group) and received a single intravenous dose of JT003 (0.5 mg/kg) or ADP355 (1.0 mg kg^−1) respectively. Blood samples were collected at 5, 15, 30, 45 min and 1, 2, 3 h following the injection, and then were immediately centrifuged (4000g, 10 min, 4 °C) to obtain plasma samples. Plasma concentrations of the two peptides were measured by LC-MS/MS (ThermoFisher Scientific, USA). Pharmacokinetic parameters of JT003 and ADP355 were calculated using non-compartmental analysis in Phoenix WinNonlin (version 8.0, Pharsight, USA). The concentration values less than the LLOQ were set to zero for the analysis.

The test system of series [4] is AdipoR1 and AdipoR2 on HepG2 and LX2 cells. The series can be described thus: Cell confocal imaging, receptor binding of FITC labeled peptide (with AdipoR siRNA). As to conditions: 37 °C, 2 or 4 h, AdipoR1/AdipoR2 siRNA as control, in words. Set-up: species or system human. On the procedure:
For in vitro receptor binding assay, 4E4 HepG2 cells or 2E4 LX2 cells were seeded on 35 mm glass bottom dish with 150 μL complete medium. Then cells were incubated with FITC labeled peptide for 4 h. The nuclei were stained with Hoechst 33342 (ThermoFisher, Scientific, USA). After washing with PBS, cells were visualized in a laser confocal microscope (Olympus FV3000, Japan). Cells with suppressed AdipoR1 and AdipoR2 expression with each specific siRNA were used as negative control.
AdipoR1 and AdipoR2 siRNA as well as mock siRNA were chemically synthesized (GenePharma, China) and transfected into 60–70% confluent HepG2 and LX2 cells using Lipofectamine 3000 (ThermoFisher Scientific, USA). Dilution of siRNA and Lipofectamine 3000 reagents as well as the transfection of cells were performed following the manufacturer’s protocol. For HepG2 cell model, 5E5 cells were plated in 6-well plates and transfected with 5 μL of 20 μM stock siRNA. At 48 h following transfection, the cells were processed for 0.25 mM PA and/or 200 μM JT003 treated for another 24 h. BSA was used as the negative control. For LX2 cell model, 2E5 cells were plated in 6-well plates and transfected with 5 μL of 20 μM stock siRNA. At 48 h following transfection, the cells were processed for JT003 or PBS treated for another 48 h. Next, cells were harvested for either western blot or qPCR assay.

A short description of series [5]: Serum stability assay (RP-HPLC). It counts as in vitro ADME. To be noted: for Fraction of peptide remaining, Supplementary Figure 5: mouse serum, time 0 (unit not given); for remaining at 0.5 h, 5 mM: time 0.5 (unit inferred); for remaining at 1 h, 5 mM: time 1 (unit inferred); for remaining at 1.5 h, 5 mM: time 1.5 (unit inferred); for remaining at 2 h, 5 mM: time 2 (unit inferred); for remaining at 2.5 h, 5 mM: time 2.5 (unit inferred); for remaining at 4 h, 5 mM: time 4 (unit inferred); for remaining at 6 h, 5 mM: time 6 (unit inferred). On the procedure: The stability of candidate peptides was investigated following procedure. […] Ice-cold acetonitrile was added to terminate the reaction. Vortex and stand for 1 min, deionized water with 1% TFA was added to the mixture to further terminate the reaction. Mixtures were then centrifuged (13,000g, 10 min) to obtain the supernatant. RP-HPLC-MS was applied to analysis the content of candidate peptides. The serum stability of candidate peptides was represented as the retention rate of each peptide.

The mark [6] stands for this setting: Sprague-Dawley, rat, male SD rats, single iv dose: JT003 0.5 mg/kg, ADP355 1.0 mg/kg, plasma, LC-MS/MS, non-compartmental, Mean ± SD, n = 3-6.
Where [7] appears, read: mouse, replicate 1, read-out: Fraction of peptide remaining, Supplementary Figure 5.
[8] abbreviates: mouse, replicate 2, read-out: Fraction of peptide remaining, Supplementary Figure 5.
The mark [9] stands for this setting: mouse, replicate 3, read-out: Fraction of peptide remaining, Supplementary Figure 5.

Several values for one entry are separate records, joined by “and”; a condition that tells them apart may be missing. Equal values may be shown once. Read-outs that look alike come from different tables or passages of the source. Non-standard residues stand in square brackets, D forms with d. Residues, ends and D or L forms follow the SMILES beside them. No end group written: not given here. Nva = CCC[C@H](N)C(=O)O

In the case of `CCC[C@H](NC(=O)[C@@H]1CCCN1C(=O)[C@@H](NC(=O)[C@H](N)CC(N)=O)[C@@H](C)CC)C(=O)N[C@@H](CC(C)C)C(=O)N[C@@H](Cc1ccc(O)cc1)C(=O)N[C@H](CO)C(=O)N[C@@H](Cc1ccccc1)C(=O)N[C@@H](C)C(=O)N[C@H](CO)C(N)=O` [ADP355] (H-[dN]IP[Nva]LY[dS]FA[dS]-NH2; N-terminus and C-terminus assumed), the “lipid droplets accumulation caused by PA (Oil Red O)” value in series [1] is reported as “could be reduced”. In addition, the “inflammation, necrosis and fibrosis area (HE and sirius red staining)” value in series [2] is “not notably raised”. Besides, the “time for which plasma concentrations were measurable” value in series [3] (SD rats, after intravenous administration, ADP355 1.0 mg/kg) was 45 min. For the same compound, the half-life in series [3] (SD rats, iv, authors' response to reviewers) was found to be 6 min. In series [3] (setting [6]), this compound had an AUC(0-inf) of 134 ± 19.9 ng·h/mL, an AUC(0-t) of 134 ± 19.9 ng·h/mL, an MRT of 5.4 ± 0.6 min and a clearance of 126 mL/min/kg. Moreover, in series [3] (Sprague-Dawley, rat, male SD rats, single iv dose: JT003 0.5 mg/kg, ADP355 1.0 mg/kg, plasma, LC-MS/MS, non-compartmental, Mean ± SD, n = 3-6, read-out: V), the Vd worked out at 1.06 ± 0.21 L/kg. In addition, the t1/2 in series [3] (male SD rats, single iv dose: JT003 0.5 mg/kg, ADP355 1.0 mg/kg, plasma, LC-MS/MS, non-compartmental, Mean ± SD, n = 3-6 (n = 3 per group)) is 6 ± 0.6 min and 6 min.

Take `CCC[C@H](NC(=O)[C@@H]1CCCN1)C(=O)N[C@@H](CC(C)C)C(=O)N[C@@H](Cc1ccc(O)cc1)C(=O)N[C@@H](CO)C(=O)N[C@@H](Cc1ccccc1)C(=O)N[C@@H](CC(=O)O)C(N)=O` [JT006] (H-P[Nva]LYSFD-NH2): the “lipid droplets accumulation caused by PA (Oil Red O)” value in series [1] is recorded as “little prevention of palmitic acid induced lipid droplets”. For the same compound, the “binding to AdipoRs on the cell membrane (confocal, FITC)” value in series [4] is “could not bind to the AdipoRs specifically”.

On to “PGLYYFD-NH2 (C-terminus assumed) [Pep70]”, for which the “Fraction of peptide remaining, Supplementary Figure 5” value (shortened to “Fraction of peptide remaining”) in series [5] (replicate 1) turned out to be 0.9901. Moreover, the “Fraction of peptide remaining” value in series [5] (replicate 2) was 1.005. Moreover, in series [5] (replicate 3), the “Fraction of peptide remaining” value turned out to be 0.9939. For the same compound, in series [5] (setting [7]), the fraction remaining at 0.5 h, 5 mM is 96.7%; the amount remaining at 1 h, 5 mM was found to be 82.5%; the share remaining at 1.5 h, 5 mM was found to be 80.8%; the share remaining at 2 h, 5 mM amounted to 50.5%. Also, in series [5] (setting [7]), the fraction remaining at 2.5 h, 5 mM amounted to 26.1%; the share remaining at 4 h, 5 mM was 23.9%; the fraction remaining at 6 h, 5 mM came to 2.28%. Further, in series [5] (setting [8]), the amount remaining at 0.5 h, 5 mM is 98.6%; the share remaining at 1 h, 5 mM is 84%; the share remaining at 1.5 h, 5 mM came out at 82.6%; the fraction remaining at 2 h, 5 mM stood at 53.4%. In addition, in series [5] (setting [8]), the share remaining at 2.5 h, 5 mM is 27.2%; the share remaining at 4 h, 5 mM was 24.2%; the fraction remaining at 6 h, 5 mM is 2.13%. For the same compound, in series [5] (setting [9]), the amount remaining at 0.5 h, 5 mM came to 94.9%; the amount remaining at 1 h, 5 mM is 83.1%; the amount remaining at 1.5 h, 5 mM is 83.7%; the share remaining at 2 h, 5 mM came out at 47.2%. Further, in series [5] (setting [9]), the fraction remaining at 2.5 h, 5 mM was determined as 27.2%; the amount remaining at 4 h, 5 mM is 23.5%; the amount remaining at 6 h, 5 mM was found to be 2.33%. For the same compound, the fraction remaining at 3 h, 5 mM in series [5] (mouse, time 3 (unit inferred), replicate 1, read-out: Fraction of peptide remaining, Supplementary Figure 5) worked out at 29.9%. Also, the share remaining at 3.5 h, 5 mM in series [5] (mouse, time 3.5 (unit inferred), replicate 1, read-out: Fraction of peptide remaining, Supplementary Figure 5) stood at 29.3%.

By half-life is commonly meant the time in which the quantity being followed falls by half. A high value points to slow decline. A word on the AUC(0-inf): it is the area under the concentration-time curve extrapolated to infinity. Lower therefore signals low exposure. In general, AUC(0-t) refers to exposure summed from dosing to a finite time, without extrapolation to infinity. For orientation: MRT means a mean duration of stay, worked out from the concentration-time curve. The term clearance denotes the rate of elimination divided by the concentration. A lower clearance goes with a low capacity for elimination. The term amount remaining denotes what is left of the initial amount, in per cent.
